Consider one compound from publication PMC5218480 (PLoS ONE, 2017).

The test concerns MV-4-11 cells. Description: Gene expression microarray analysis (Affymetrix PrimeView) and GSEA. The conditions noted are these: MV-4-11 cells, 48 hours. Also noted: RFU PODN (11730768_x_at) / Fold change /veh PODN (11730768_x_at) / RFU LINC00158 (11744669_a_at) / Fold change /veh LINC00158 (11744669_a_at) / RFU DUSP10 (11751237_a_at) / Fold change /veh DUSP10 (11751237_a_at) / RFU ID3 (11757404_x_at) / Fold change /veh ID3 (11757404_x_at) / RFU PLEKHG5 (11737974_s_at) / Fold change /veh PLEKHG5 (11737974_s_at) / RFU LRRC4B (11730491_at) / Fold change /veh LRRC4B (11730491_at) / RFU GIMAP4 (11747438_a_at) / Fold change /veh GIMAP4 (11747438_a_at) / RFU KRT8 (11758183_x_at) / Fold change /veh KRT8 (11758183_x_at) / RFU CNN1 (11734310_a_at) / Fold change /veh CNN1 (11734310_a_at) / RFU VPS37D (11726825_at) / Fold change /veh VPS37D (11726825_at) / RFU C10orf10 (11716522_x_at) / Fold change /veh C10orf10 (11716522_x_at) / RFU KIR2DL2 /// KIR2DL4 /// KIR2DL5A /// KIR2DL5B /// KIR2DS1 /// KIR2DS2 /// KIR2DS3 /// KIR2DS4 /// KIR3DL3 /// KIR3DL3 /// KIR3DS1 (11738374_at) / Fold change /veh KIR2DL2 /// KIR2DL4 /// KIR2DL5A /// KIR2DL5B /// KIR2DS1 /// KIR2DS2 /// KIR2DS3 /// KIR2DS4 /// KIR3DL3 /// KIR3DL3 /// KIR3DS1 (11738374_at) / RFU C1QL1 (11718748_at) / Fold change /veh C1QL1 (11718748_at) / RFU TMPRSS4 (11747572_a_at) / Fold change /veh TMPRSS4 (11747572_a_at) / RFU HAMP (11756126_x_at) / Fold change /veh HAMP (11756126_x_at) / RFU RNFT2 (11725882_a_at) / Fold change /veh RNFT2 (11725882_a_at) / RFU NR4A2 (11747474_a_at) / Fold change /veh NR4A2 (11747474_a_at) / RFU ABCC12 (11746883_a_at) / Fold change /veh ABCC12 (11746883_a_at) / RFU TMEM136 (11760407_x_at) / Fold change /veh TMEM136 (11760407_x_at) / RFU CLDN22 /// WWC2 (11732394_at) / Fold change /veh CLDN22 /// WWC2 (11732394_at) / RFU HLA-DPB1 (11760878_x_at) / Fold change /veh HLA-DPB1 (11760878_x_at) / RFU SPINT1 (11716480_a_at) / Fold change /veh SPINT1 (11716480_a_at) / RFU GAP43 (11754022_s_at) / Fold change /veh GAP43 (11754022_s_at) / RFU A4GNT (11735810_at) / Fold change /veh A4GNT (11735810_at) / RFU PRB3 (11715151_x_at) / Fold change /veh PRB3 (11715151_x_at) / RFU TUBB4B (11761932_at) / Fold change /veh TUBB4B (11761932_at) / RFU CAPN14 (11732068_a_at) / Fold change /veh CAPN14 (11732068_a_at) / RFU TMCC2 (11721928_a_at) / Fold change /veh TMCC2 (11721928_a_at) / RFU IRGQ (11745062_a_at) / Fold change /veh IRGQ (11745062_a_at) / RFU FAM174B (11720279_a_at) / Fold change /veh FAM174B (11720279_a_at) / RFU TMPRSS4 (11748680_a_at) / Fold change /veh TMPRSS4 (11748680_a_at) / RFU FAM212B (11763350_a_at) / Fold change /veh FAM212B (11763350_a_at) / RFU PLEKHG5 (11743358_a_at) / Fold change /veh PLEKHG5 (11743358_a_at) / RFU ZSCAN30 (11745921_a_at) / Fold change /veh ZSCAN30 (11745921_a_at) / RFU CMKLR1 (11741424_a_at) / Fold change /veh CMKLR1 (11741424_a_at) / RFU LOC101060620 /// MAPK8IP1 (11723275_at) / Fold change /veh LOC101060620 /// MAPK8IP1 (11723275_at) / RFU SPTSSB (11747773_x_at) / Fold change /veh SPTSSB (11747773_x_at) / RFU PRSS12 (11739890_at) / Fold change /veh PRSS12 (11739890_at) / RFU BIN1 (11741810_x_at) / Fold change /veh BIN1 (11741810_x_at) / RFU WNT11 (11732464_a_at) / Fold change /veh WNT11 (11732464_a_at) / RFU C10orf10 (11716521_a_at) / Fold change /veh C10orf10 (11716521_a_at) / RFU C5orf56 (11738089_at) / Fold change /veh C5orf56 (11738089_at) / RFU CYB561 (11721691_x_at) / Fold change /veh CYB561 (11721691_x_at) / RFU ANKRD19P (11752326_a_at) / Fold change /veh ANKRD19P (11752326_a_at) / RFU OR2T12 /// OR2T33 /// OR2T8 (11738714_s_at) / Fold change /veh OR2T12 /// OR2T33 /// OR2T8 (11738714_s_at) / RFU VCAN (11748164_a_at) / Fold change /veh VCAN (11748164_a_at) / RFU JSRP1 (11732532_at) / Fold change /veh JSRP1 (11732532_at) / RFU KRTAP10-11 (11738290_x_at) / Fold change /veh KRTAP10-11 (11738290_x_at) / RFU MYO3A (11730013_a_at) / Fold change /veh MYO3A (11730013_a_at) / RFU EBF3 (11725865_a_at) / Fold change /veh EBF3 (11725865_a_at) / RFU CAMK2N1 (11719241_x_at) / Fold change /veh CAMK2N1 (11719241_x_at) / RFU C5orf56 (11738088_a_at) / Fold change /veh C5orf56 (11738088_a_at) / RFU OLFML3 (11715873_a_at) / Fold change /veh OLFML3 (11715873_a_at) / RFU LOC100653217 /// NTM (11731650_a_at) / Fold change /veh LOC100653217 /// NTM (11731650_a_at) / RFU MAPK11 (11762145_a_at) / Fold change /veh MAPK11 (11762145_a_at) / RFU FIZ1 (11724087_x_at) / Fold change /veh FIZ1 (11724087_x_at) / RFU OASL (11726364_x_at) / Fold change /veh OASL (11726364_x_at) / RFU SOX15 (11748057_x_at) / Fold change /veh SOX15 (11748057_x_at) / RFU CD79A (11719716_a_at) / Fold change /veh CD79A (11719716_a_at) / RFU HIST1H1D (11736915_at) / Fold change /veh HIST1H1D (11736915_at) / RFU CASKIN2 (11723855_a_at) / Fold change /veh CASKIN2 (11723855_a_at) / RFU LOC730098 (11760151_x_at) / Fold change /veh LOC730098 (11760151_x_at) / RFU OR4N2 (11742367_at) / Fold change /veh OR4N2 (11742367_at) / RFU PRRT2 (11749266_a_at) / Fold change /veh PRRT2 (11749266_a_at) / RFU SNX32 (11753110_a_at) / Fold change /veh SNX32 (11753110_a_at) / RFU CDHR5 (11726645_a_at) / Fold change /veh CDHR5 (11726645_a_at) / RFU RCAN1 (11760418_a_at) / Fold change /veh RCAN1 (11760418_a_at) / RFU FAM167A (11723789_a_at) / Fold change /veh FAM167A (11723789_a_at) / RFU FAM26E (11764081_at) / Fold change /veh FAM26E (11764081_at) / RFU ISYNA1 (11749810_s_at) / Fold change /veh ISYNA1 (11749810_s_at) / RFU ACY1 (11761880_at) / Fold change /veh ACY1 (11761880_at) / RFU 11764098_at / Fold change /veh 11764098_at / RFU SAMD14 (11745864_x_at) / Fold change /veh SAMD14 (11745864_x_at) / RFU NPB (11741838_a_at) / Fold change /veh NPB (11741838_a_at) / RFU TMPRSS6 (11731388_a_at) / Fold change /veh TMPRSS6 (11731388_a_at) / RFU KRTAP10-2 (11738614_at) / Fold change /veh KRTAP10-2 (11738614_at) / RFU ARHGAP8 /// PRR5-ARHGAP8 (11727945_x_at) / Fold change /veh ARHGAP8 /// PRR5-ARHGAP8 (11727945_x_at) / RFU KRTAP5-7 /// NADSYN1 (11734609_at) / Fold change /veh KRTAP5-7 /// NADSYN1 (11734609_at) / RFU RASL12 (11751679_a_at) / Fold change /veh RASL12 (11751679_a_at) / RFU CDKN2B (11736163_a_at) / Fold change /veh CDKN2B (11736163_a_at) / RFU PRF1 (11729649_at) / Fold change /veh PRF1 (11729649_at) / RFU, ZNF638 /// ZNF638-IT1 / Fold change vs veh, ZNF638 /// ZNF638-IT1 / RFU, PANK3 / Fold change vs veh, PANK3 / RFU, SH3YL1 / Fold change vs veh, SH3YL1 / RFU, ZEB2 / Fold change vs veh, ZEB2 / RFU, NRIP1 / Fold change vs veh, NRIP1 / RFU, PTTG1IP / Fold change vs veh, PTTG1IP / RFU, CAPN2 / Fold change vs veh, CAPN2 / RFU, MED14 / Fold change vs veh, MED14 / RFU, SNORA58 / Fold change vs veh, SNORA58 / RFU, C1orf63 / Fold change vs veh, C1orf63 / RFU, LRRFIP1 / Fold change vs veh, LRRFIP1 / RFU, NDUFAF7 / Fold change vs veh, NDUFAF7 / RFU, SLC12A2 / Fold change vs veh, SLC12A2 / RFU, IBTK / Fold change vs veh, IBTK / RFU, ESF1 / Fold change vs veh, ESF1 / Fold change vs veh, TMEM50B / RFU, TAOK1 / Fold change vs veh, TAOK1 / RFU, ACBD3 / Fold change vs veh, ACBD3 / RFU, TMA16 / Fold change vs veh, TMA16 / RFU, RWDD3 / Fold change vs veh, RWDD3 / RFU, BCAT1 / Fold change vs veh, BCAT1 / RFU, EDEM3 / Fold change vs veh, EDEM3 / RFU, TMEM33 / Fold change vs veh, TMEM33 / RFU, WDR75 / Fold change vs veh, WDR75 / RFU, AHCTF1 / Fold change vs veh, AHCTF1 / RFU, TFRC / Fold change vs veh, TFRC / RFU, ZDHHC17 / Fold change vs veh, ZDHHC17 / RFU, NOM1 / Fold change vs veh, NOM1 / RFU, ARL8B / Fold change vs veh, ARL8B / RFU, ZBTB11 / Fold change vs veh, ZBTB11 / RFU, TAMM41 / Fold change vs veh, TAMM41 / RFU, KIAA1704 /// LOC100996395 / Fold change vs veh, KIAA1704 /// LOC100996395 / RFU, ING1 / Fold change vs veh, ING1 / RFU, TRMT61B / Fold change vs veh, TRMT61B / RFU, FUBP3 / Fold change vs veh, FUBP3 / RFU, TP53 / Fold change vs veh, TP53 / RFU, TNKS2 / Fold change vs veh, TNKS2 / RFU, ZFP14 / Fold change vs veh, ZFP14 / RFU, ACTR2 / Fold change vs veh, ACTR2 / RFU, PPP3R1 / Fold change vs veh, PPP3R1 / RFU, PIK3R1 / Fold change vs veh, PIK3R1 / RFU, HNRNPA1 / Fold change vs veh, HNRNPA1 / RFU, RNF170 / Fold change vs veh, RNF170 / RFU, ZNF28 / Fold change vs veh, ZNF28 / RFU, RNGTT / Fold change vs veh, RNGTT / RFU, OGT / Fold change vs veh, OGT / RFU, BRD1 / Fold change vs veh, BRD1 / RFU, MARS / Fold change vs veh, MARS / RFU, ZNF655 / Fold change vs veh, ZNF655 / RFU, FAHD1 / Fold change vs veh, FAHD1 / RFU, BDP1 / Fold change vs veh, BDP1 / RFU, LRRCC1 / Fold change vs veh, LRRCC1 / RFU, ARID1A / Fold change vs veh, ARID1A / RFU, ZNF146 / Fold change vs veh, ZNF146 / RFU, ZNF330 / Fold change vs veh, ZNF330 / RFU, GPN3 / Fold change vs veh, GPN3 / RFU, C9orf123 / Fold change vs veh, C9orf123 / RFU, N4BP2L2 / Fold change vs veh, N4BP2L2 / RFU, ARFIP1 / Fold change vs veh, ARFIP1 / RFU, FAM179B / Fold change vs veh, FAM179B / RFU, BCL10 / Fold change vs veh, BCL10 / RFU, UHRF1BP1L / Fold change vs veh, UHRF1BP1L / RFU, BET1 / Fold change vs veh, BET1 / RFU, CNOT2 / Fold change vs veh, CNOT2 / RFU, ZNF268 / Fold change vs veh, ZNF268 / Fold change vs veh, ZNF507 / RFU, DGCR2 / Fold change vs veh, DGCR2 / RFU, WDSUB1 / Fold change vs veh, WDSUB1 / Fold change vs veh, HSP90B1 /// MIR3652 / RFU, ADSS / Fold change vs veh, ADSS / RFU, GK / Fold change vs veh, GK / RFU, ZNF148 / Fold change vs veh, ZNF148 / RFU, TAF9 / Fold change vs veh, TAF9 / RFU, SLC1A5 / Fold change vs veh, SLC1A5 / RFU, SLMO2 / Fold change vs veh, SLMO2 / RFU, ABCC4 / Fold change vs veh, ABCC4 / RFU, LOC101060439 /// RAP1B / Fold change vs veh, LOC101060439 /// RAP1B / RFU, RFX7 / Fold change vs veh, RFX7 / RFU, GTPBP10 / Fold change vs veh, GTPBP10 / RFU, CNEP1R1 / Fold change vs veh, CNEP1R1 / RFU, BIVM-ERCC5 /// ERCC5 / Fold change vs veh, BIVM-ERCC5 /// ERCC5 / RFU, ILF3 / Fold change vs veh, ILF3 / RFU 11762660_at / Fold change /veh 11762660_at / RFU VCAN (11757783_s_at) / Fold change /veh VCAN (11757783_s_at) / RFU DDX43 (11728927_at) / Fold change /veh DDX43 (11728927_at) / RFU KRT8 (11758188_x_at) / Fold change /veh KRT8 (11758188_x_at) / RFU NKD1 (11759106_at) / Fold change /veh NKD1 (11759106_at) / RFU SRD5A1 (11742802_a_at) / Fold change /veh SRD5A1 (11742802_a_at) / RFU TPSAB1 /// TPSB2 (11721975_s_at) / Fold change /veh TPSAB1 /// TPSB2 (11721975_s_at) / RFU GSTM3 (11746129_a_at) / Fold change /veh GSTM3 (11746129_a_at) / RFU IL23R (11737362_x_at) / Fold change /veh IL23R (11737362_x_at) / RFU TMEM51 (11727254_a_at) / Fold change /veh TMEM51 (11727254_a_at) / RFU PIWIL2 (11732686_x_at) / Fold change /veh PIWIL2 (11732686_x_at) / RFU ORM1 (11744905_x_at) / Fold change /veh ORM1 (11744905_x_at) / RFU CCDC152 (11743942_at) / Fold change /veh CCDC152 (11743942_at) / RFU ECM1 (11717891_a_at) / Fold change /veh ECM1 (11717891_a_at) / RFU IL23R (11748794_a_at) / Fold change /veh IL23R (11748794_a_at) / RFU TNFAIP8L3 (11732012_x_at) / Fold change /veh TNFAIP8L3 (11732012_x_at) / RFU MBOAT4 (11741988_at) / Fold change /veh MBOAT4 (11741988_at) / RFU 11764193_at / Fold change /veh 11764193_at / RFU TMEM53 (11763286_at) / Fold change /veh TMEM53 (11763286_at) / RFU MAGEB2 (11727129_at) / Fold change /veh MAGEB2 (11727129_at) / RFU TMEM200A (11744735_a_at) / Fold change /veh TMEM200A (11744735_a_at) / RFU CCDC152 (11751479_a_at) / Fold change /veh CCDC152 (11751479_a_at) / RFU FAM211A (11726209_a_at) / Fold change /veh FAM211A (11726209_a_at) / RFU RGS16 (11746705_a_at) / Fold change /veh RGS16 (11746705_a_at) / RFU VCAN (11755009_s_at) / Fold change /veh VCAN (11755009_s_at) / RFU RHOB (11743442_s_at) / Fold change /veh RHOB (11743442_s_at) / RFU RGS16 (11720943_a_at) / Fold change /veh RGS16 (11720943_a_at) / RFU RGS16 (11720944_at) / Fold change /veh RGS16 (11720944_at) / RFU, VPS4B / Fold change vs veh, VPS4B / RFU, CREB1 / Fold change vs veh, CREB1 / RFU, DNAJC13 / Fold change vs veh, DNAJC13 / RFU, GNAQ / Fold change vs veh, GNAQ / RFU, CDK5R1 / Fold change vs veh, CDK5R1 / RFU, ZRANB3 / Fold change vs veh, ZRANB3 / RFU, CUL4A / Fold change vs veh, CUL4A / RFU, CCNY / Fold change vs veh, CCNY / RFU, UFL1 / Fold change vs veh, UFL1 / RFU, COG3 / Fold change vs veh, COG3 / RFU, DIAPH2 / Fold change vs veh, DIAPH2 / RFU, SKA2 / Fold change vs veh, SKA2 / RFU, AFF3 / Fold change vs veh, AFF3 / RFU, LMF1 / Fold change vs veh, LMF1 / RFU, IPO11 / Fold change vs veh, IPO11 / RFU, DFFB / Fold change vs veh, DFFB / RFU, FOXP1 / Fold change vs veh, FOXP1 / RFU, CARD8 / Fold change vs veh, CARD8 / RFU, STRN3 / Fold change vs veh, STRN3 / RFU, ADK / Fold change vs veh, ADK / RFU, RASSF2 / Fold change vs veh, RASSF2 / RFU, WIPF1 / Fold change vs veh, WIPF1 / RFU, LARP1B / Fold change vs veh, LARP1B / RFU, RASA1 / Fold change vs veh, RASA1 / RFU, RB1 / Fold change vs veh, RB1 / RFU, PPFIA1 / Fold change vs veh, PPFIA1 / RFU, MAT2A / Fold change vs veh, MAT2A / RFU, CCT5 / Fold change vs veh, CCT5 / RFU, WDR92 / Fold change vs veh, WDR92 / RFU, CUX1 / Fold change vs veh, CUX1 / RFU, TTC7A / Fold change vs veh, TTC7A / RFU, TMEM135 / Fold change vs veh, TMEM135 / RFU, DEPTOR / Fold change vs veh, DEPTOR / RFU, CPM / Fold change vs veh, CPM / RFU, DNAJB6 / Fold change vs veh, DNAJB6 / RFU, CACNA2D3 / Fold change vs veh, CACNA2D3 / RFU, DTX4 / Fold change vs veh, DTX4 / RFU, TFCP2 / Fold change vs veh, TFCP2 / RFU, GMCL1 /// GMCL1P1 / Fold change vs veh, GMCL1 /// GMCL1P1 / RFU, AEBP2 / Fold change vs veh, AEBP2 / RFU, SNHG1 /// SNORD22 /// SNORD25 /// SNORD26 /// SNORD27 /// SNORD28 /// SNORD29 /// SNORD31 / Fold change vs veh, SNHG1 /// SNORD22 /// SNORD25 /// SNORD26 /// SNORD27 /// SNORD28 /// SNORD29 /// SNORD31 / Fold change (Aza/veh), C12orf56 (ProbeSet 11735607_a_at) / Fold change (ACY-1035/veh), C12orf56 (ProbeSet 11735607_a_at) / Fold change (Aza/veh), FGFR1OP (ProbeSet 11751329_s_at) / Fold change (ACY-1035/veh), FGFR1OP (ProbeSet 11751329_s_at) / Fold change (Aza/veh), VPS36 (ProbeSet 11739960_a_at) / Fold change (ACY-1035/veh), VPS36 (ProbeSet 11739960_a_at) / RFU SYPL1 (11715823_x_at) / Fold change /veh SYPL1 (11715823_x_at) / RFU IGFBP7 (11715501_s_at) / Fold change /veh IGFBP7 (11715501_s_at) / RFU REEP3 (11722064_at) / Fold change /veh REEP3 (11722064_at) / RFU IGLL1 (11728026_x_at) / Fold change /veh IGLL1 (11728026_x_at): dose or concentration left out as unconfirmed. Type of test: cell-based, human.

Consider `Nc1ncn([C@@H]2O[C@H](CO)[C@@H](O)[C@H]2O)c(=O)n1` [azacitidine], for which the “RFU MBOAT4 (11741988_at)” value turned out to be 11.61 RFU.
